Experimental data taken from ChEMBL document CHEMBL1201862, “PubChem BioAssay data set” (2004).
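Protocol summary: plate cells (96-well), add compound at 5 concentrations, incubate 48 h, interpolate endpoints linearly. The concentration for 50% growth inhibition is given as GI50.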 Activity calls are given as the source filed them. No stated cut-off is given here; in the data, active = GI50 up to about 1.1 µM and inactive = higher.

Legend:
Assay in all cases: growth of human tumour cells (NCI), 48 h
OVCAR-3 = tested on: OVCAR-3
HCC 2998 = tested on: HCC 2998
OVCAR-8 = tested on: OVCAR-8
COLO 205 = tested on: COLO 205
786-0 = tested on: 786-0
SF-268 = tested on: SF-268
UACC-257 = tested on: UACC-257
SK-MEL-5 = tested on: SK-MEL-5
ACHN = tested on: ACHN
HOP-92 = tested on: HOP-92
M19-MEL = tested on: M19-MEL
CAKI-1 = tested on: CAKI-1
UACC-62 = tested on: UACC-62
LOX IMVI = tested on: LOX IMVI
MOLT-4 = tested on: MOLT-4
SK-OV-3 = tested on: SK-OV-3
SK-MEL-28 = tested on: SK-MEL-28
LXFL 529 = tested on: LXFL 529
HL-60 = tested on: HL-60
NCI-H226 = tested on: NCI-H226
OVCAR-5 = tested on: OVCAR-5
U-251 = tested on: U-251
CCRF-CEM = tested on: CCRF-CEM
NCI-H522 = tested on: NCI-H522
SF-539 = tested on: SF-539
NCI-H460 = tested on: NCI-H460
KM-20L2 = tested on: KM-20L2
SW-620 = tested on: SW-620
HOP-62 = tested on: HOP-62
K562 = tested on: K562
UO-31 = tested on: UO-31
SNB-78 = tested on: SNB-78
SR = tested on: SR
SNB-75 = tested on: SNB-75
M14 = tested on: M14
DLD-1 = tested on: DLD-1
HOP-18 = tested on: HOP-18
DMS-273 = tested on: DMS-273
DMS-114 = tested on: DMS-114
HCT-15 = tested on: HCT-15
TK-10 = tested on: TK-10
OVCAR-4 = tested on: OVCAR-4
SK-MEL-2 = tested on: SK-MEL-2
Malme-3M = tested on: Malme-3M
IGROV-1 = tested on: IGROV-1
HT-29 = tested on: HT-29
XF498 = tested on: XF498
RPMI-8226 = tested on: RPMI-8226
SF-295 = tested on: SF-295
A498 = tested on: A498
SN12C = tested on: SN12C
SNB-19 = tested on: SNB-19
HCT-116 = tested on: HCT-116
EKVX = tested on: EKVX
KM12 = tested on: KM12
RXF 393 = tested on: RXF 393
NCI-H23 = tested on: NCI-H23
A549 = tested on: A549
RXF 631 = tested on: RXF 631

## CCc1c(-c2coc(CC/C(C)=C/c3ccccc3)n2)oc(OC)c(C)c1=O
OVCAR-3
  GI50: 45.2 µM (inactive)
HCC 2998
  GI50: 78.7 µM (inactive)
OVCAR-8
  GI50: 19.9 µM (inactive)
COLO 205
  GI50: 21.5 µM (inactive)
786-0
  GI50: 18.1 µM (inactive)
SF-268
  GI50: > 100 µM (inactive)
UACC-257
  GI50: > 100 µM (inactive)
SK-MEL-5
  GI50: 4.12 µM (inactive)
ACHN
  GI50: 22.5 µM (inactive)
HOP-92
  GI50: 34.6 µM (inactive)
M19-MEL
  GI50: 31.8 µM (inactive)
CAKI-1
  GI50: > 52.2 µM (inactive)
UACC-62
  GI50: 17.6 µM (inactive)
LOX IMVI
  GI50: 15.1 µM (inactive)
MOLT-4
  GI50: 10.9 µM (inactive)
SK-OV-3
  GI50: 32.7 µM (inactive)
SK-MEL-28
  GI50: > 100 µM (inactive)
LXFL 529
  GI50: 5.96 µM (inactive)
HL-60
  GI50: 5.13 µM (inactive)
NCI-H226
  GI50: 68.2 µM (inactive)
OVCAR-5
  GI50: > 100 µM (inactive)
U-251
  GI50: 29 µM (inactive)
CCRF-CEM
  GI50: 14.9 µM (inactive)
NCI-H522
  GI50: 0.209 µM (active)
SF-539
  GI50: 28 µM (inactive)
NCI-H460
  GI50: 18.7 µM (inactive)
KM-20L2
  GI50: 28.5 µM (inactive)
SW-620
  GI50: 9.25 µM (inactive)
HOP-62
  GI50: > 40 µM (inactive)
K562
  GI50: 0.122 µM (active)
UO-31
  GI50: 5.35 µM (inactive)
SNB-78
  GI50: 53.3 µM (inactive)
SR
  GI50: < 0.01 µM (active)
SNB-75
  GI50: 49.4 µM (inactive)
M14
  GI50: 34.8 µM (inactive)
DLD-1
  GI50: 26.8 µM (inactive)
HOP-18
  GI50: > 57.3 µM (inactive)
DMS-273
  GI50: 10.1 µM (inactive)
DMS-114
  GI50: < 0.01 µM (active)
HCT-15
  GI50: 18.7 µM
TK-10
  GI50: > 100 µM (inactive)
OVCAR-4
  GI50: > 39 µM (inactive)
SK-MEL-2
  GI50: 60.1 µM (inactive)
Malme-3M
  GI50: > 59.8 µM (inactive)
IGROV-1
  GI50: > 83.8 µM (inactive)
HT-29
  GI50: 24.8 µM (inactive)
XF498
  GI50: 17.7 µM (inactive)
RPMI-8226
  GI50: 11.7 µM (inactive)
SF-295
  GI50: 1.77 µM (inactive)
A498
  GI50: 99.8 µM (inactive)
SN12C
  GI50: > 42.1 µM (inactive)
SNB-19
  GI50: 23.1 µM (inactive)
HCT-116
  GI50: 19 µM (inactive)
EKVX
  GI50: 25.4 µM (inactive)
KM12
  GI50: 78.9 µM (inactive)

## C=CC1(C)CCC(C(C)C(=O)C(C=C(C)C)OC(C)=O)C12C(=O)Oc1ccccc1C2=O (configuration not stated)
OVCAR-3
  GI50: 38.9 µM (inactive)
HCC 2998
  GI50: 82.4 µM (inactive)
OVCAR-8
  GI50: 37.6 µM (inactive)
COLO 205
  GI50: 29.4 µM (inactive)
786-0
  GI50: 84.1 µM (inactive)
SF-268
  GI50: 62.1 µM (inactive)
UACC-257
  GI50: 35 µM (inactive)
ACHN
  GI50: 51.5 µM (inactive)
HOP-92
  GI50: 40.2 µM (inactive)
M19-MEL
  GI50: 26.2 µM (inactive)
UACC-62
  GI50: 49 µM (inactive)
LOX IMVI
  GI50: 35.7 µM (inactive)
MOLT-4
  GI50: 26.2 µM (inactive)
SK-OV-3
  GI50: 82.2 µM (inactive)
SK-MEL-28
  GI50: > 100 µM (inactive)
RXF 393
  GI50: 26.7 µM (inactive)
LXFL 529
  GI50: 37.8 µM (inactive)
HL-60
  GI50: 19.7 µM (inactive)
NCI-H226
  GI50: 58.5 µM (inactive)
U-251
  GI50: 38 µM (inactive)
CCRF-CEM
  GI50: 27 µM (inactive)
NCI-H522
  GI50: 31.6 µM (inactive)
SF-539
  GI50: > 100 µM (inactive)
NCI-H460
  GI50: 29.6 µM (inactive)
KM-20L2
  GI50: 51.3 µM (inactive)
SW-620
  GI50: 63.8 µM (inactive)
HOP-62
  GI50: 35.2 µM (inactive)
K562
  GI50: 31.6 µM (inactive)
UO-31
  GI50: 34.4 µM (inactive)
SNB-78
  GI50: 79.4 µM (inactive)
SR
  GI50: 33.6 µM (inactive)
SNB-75
  GI50: 52.5 µM (inactive)
M14
  GI50: 54.2 µM (inactive)
DLD-1
  GI50: 54.5 µM (inactive)
HOP-18
  GI50: 95.3 µM (inactive)
DMS-273
  GI50: 23.4 µM (inactive)
DMS-114
  GI50: 26 µM (inactive)
HCT-15
  GI50: 38.5 µM
TK-10
  GI50: > 100 µM (inactive)
OVCAR-4
  GI50: 45.2 µM (inactive)
SK-MEL-2
  GI50: 32.7 µM (inactive)
Malme-3M
  GI50: 48.5 µM (inactive)
IGROV-1
  GI50: 72.3 µM (inactive)
HT-29
  GI50: 35.3 µM (inactive)
XF498
  GI50: 54 µM (inactive)
RPMI-8226
  GI50: 23.7 µM (inactive)
SF-295
  GI50: 47.9 µM (inactive)
SN12C
  GI50: 49.4 µM (inactive)
NCI-H23
  GI50: 46.7 µM (inactive)
SNB-19
  GI50: > 100 µM (inactive)
HCT-116
  GI50: 31.1 µM (inactive)
EKVX
  GI50: 60.8 µM (inactive)
A549
  GI50: 35.7 µM (inactive)
KM12
  GI50: 44.8 µM (inactive)

## CNC1CC(n2cc(C)c(=O)[nH]c2=O)OC1CO (configuration not stated)
HCC 2998
  GI50: > 100 µM (inactive)
COLO 205
  GI50: > 100 µM (inactive)
786-0
  GI50: > 100 µM (inactive)
SF-268
  GI50: > 100 µM (inactive)
ACHN
  GI50: > 100 µM (inactive)
HOP-92
  GI50: > 100 µM (inactive)
M19-MEL
  GI50: > 100 µM (inactive)
CAKI-1
  GI50: > 100 µM (inactive)
UACC-62
  GI50: > 100 µM (inactive)
MOLT-4
  GI50: > 100 µM (inactive)
SK-OV-3
  GI50: > 100 µM (inactive)
SK-MEL-28
  GI50: > 100 µM (inactive)
LXFL 529
  GI50: > 100 µM (inactive)
HL-60
  GI50: > 100 µM (inactive)
NCI-H226
  GI50: > 100 µM (inactive)
CCRF-CEM
  GI50: > 100 µM (inactive)
NCI-H522
  GI50: > 100 µM (inactive)
SF-539
  GI50: > 100 µM (inactive)
HOP-62
  GI50: > 100 µM (inactive)
K562
  GI50: > 100 µM (inactive)
UO-31
  GI50: > 100 µM (inactive)
RXF 631
  GI50: > 100 µM (inactive)
SR
  GI50: > 100 µM (inactive)
SNB-75
  GI50: > 100 µM (inactive)
M14
  GI50: > 100 µM (inactive)
DLD-1
  GI50: > 100 µM (inactive)
DMS-273
  GI50: > 100 µM (inactive)
DMS-114
  GI50: > 100 µM (inactive)
OVCAR-4
  GI50: > 100 µM (inactive)
SK-MEL-2
  GI50: > 100 µM (inactive)
Malme-3M
  GI50: > 100 µM (inactive)
IGROV-1
  GI50: > 100 µM (inactive)
XF498
  GI50: > 100 µM (inactive)
RPMI-8226
  GI50: > 100 µM (inactive)
A498
  GI50: > 100 µM (inactive)
SN12C
  GI50: > 100 µM (inactive)
NCI-H23
  GI50: > 100 µM (inactive)
HCT-116
  GI50: > 100 µM (inactive)
